The IC50 is the concentration at which inhibition is half-maximal. Read a low IC50 as greater potency.

Experiment [1] has as its target amino acid substituted PPO enzyme dG210 (Amaranthus tuberculatus, UniProt Q0NZW9, DEL211-211, form not given). It is filed as biochemical.
For experiment [2], the target named is amino acid substituted PPO enzyme R128A, F420M (Amaranthus tuberculatus, UniProt Q0NZW9, F420M/R128A). Put plainly: biochemical.
Experiment [3] has as its target amino acid substituted PPO enzyme R128A (Amaranthus tuberculatus, UniProt Q0NZW9, R128A). Put plainly: biochemical.
For experiment [4], the target named is amino acid substituted PPO enzyme L397D (Amaranthus tuberculatus, UniProt Q0NZW9, L397D). The experiment is described as follows: biochemical.
Experiment [5] deals with amino acid substituted PPO enzyme R128A, F420L (Amaranthus tuberculatus, UniProt Q0NZW9, F420L/R128A). Put plainly: biochemical.
Experiment [6] deals with amino acid substituted PPO enzyme R128L (Amaranthus tuberculatus, UniProt Q0NZW9, R128L). Put plainly: biochemical.
For experiment [7], the target named is amino acid substituted PPO enzyme R128A, F420I (Amaranthus tuberculatus, UniProt Q0NZW9, F420I/R128A). Put plainly: biochemical.
Experiment [8] deals with amino acid substituted PPO enzyme F420I (Amaranthus tuberculatus, UniProt Q0NZW9, F420I). Put plainly: biochemical.
The target of experiment [9] is amino acid substituted PPO enzyme F420M (Amaranthus tuberculatus, UniProt Q0NZW9, F420M). Put plainly: biochemical.
Experiment [10] concerns the target amino acid substituted PPO enzyme F420V (Amaranthus tuberculatus, UniProt Q0NZW9, F420V). The experiment is described as follows: biochemical.
The target of experiment [11] is amino acid substituted PPO enzyme L397N (Amaranthus tuberculatus, UniProt Q0NZW9, L397N). Put plainly: biochemical.
Experiment [12] concerns the target amino acid substituted PPO enzyme F420L (Amaranthus tuberculatus, UniProt Q0NZW9, F420L). The experiment is described as follows: biochemical.

Turning to `C#CCN1C(=O)C(F)(F)Oc2cc(F)c(-n3c(=O)n(C)c(=S)n(C)c3=O)cc21` [benzoxazinone 1.a.35], the IC50 worked out at 2.12 nM in [1]; 6.24 nM in experiment [2]; 0.14 nM in [3]; 0.272 nM in experiment [4]; 23.8 nM in experiment [5]; 0.773 nM in [6]. The IC50 in experiment [7] is 19.8 nM; in [8] it was 0.495 nM; in experiment [9], 0.275 nM; in experiment [10], 2.45 nM; in [11] it was 0.235 nM; in experiment [12], 0.993 nM.

The record behind these values is US12570994B2, “Plants having increased tolerance to herbicides” (BASF AGRO B.V., priority 2010, dated 2026).
